Source: ChEMBL document CHEMBL3397042, “Synthesis of a chondroitin sulfate disaccharide library and a GAG-binding protein interaction analysis” (Bioorg Med Chem Lett, 2015)
pKd: −log10 of the molar value.

Target: Fibroblast growth factor 2 (Homo sapiens, UniProt P09038)
Experiment: Binding affinity to basic fibroblast growth factor (unknown origin) using sugar chip immobilized compound by surface plasmon resonance method
Details: for pKd: read-out: Kd; call rule not given here

Chain of Fibroblast growth factor 2 (P09038 143-288 limits assumed): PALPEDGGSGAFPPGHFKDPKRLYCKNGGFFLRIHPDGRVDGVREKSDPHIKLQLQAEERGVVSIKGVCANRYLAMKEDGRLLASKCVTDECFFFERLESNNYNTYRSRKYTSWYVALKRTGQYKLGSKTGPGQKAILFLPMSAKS

CC(=O)N[C@H]1[C@@H](OC[C@@H](O)[C@@H](O)[C@H](O)[C@@H](O)CNc2cccc(NC(=O)CCCCC3CCSS3)c2)O[C@H](CO)[C@H](O)[C@@H]1O[C@@H]1O[C@H](C(=O)[O-])[C@@H](O)[C@H](O)[C@H]1O.[Na+] (stereo partly specified)
Kd: Not Active

CC(=O)N[C@H]1[C@@H](OC[C@@H](O)[C@@H](O)[C@H](O)[C@@H](O)CNc2cccc(NC(=O)CCCCC3CCSS3)c2)O[C@H](COS(=O)(=O)O)[C@H](OS(=O)(=O)O)[C@@H]1O[C@@H]1O[C@H](C(=O)O)[C@@H](O)[C@H](O)[C@H]1O (stereo partly specified)
pKd: 7.80

CC(=O)N[C@H]1[C@@H](OC[C@@H](O)[C@@H](O)[C@H](O)[C@@H](O)CNc2cccc(NC(=O)CCCCC3CCSS3)c2)O[C@H](CO)[C@H](OS(=O)(=O)O)[C@@H]1O[C@@H]1O[C@H](C(=O)O)[C@@H](O)[C@H](OS(=O)(=O)O)[C@H]1O (stereo partly specified)
pKd: 7.39

CC(=O)N[C@H]1[C@@H](OC[C@@H](O)[C@@H](O)[C@H](O)[C@@H](O)CNc2cccc(NC(=O)CCCCC3CCSS3)c2)O[C@H](CO)[C@H](OS(=O)(=O)[O-])[C@@H]1O[C@@H]1O[C@H](C(=O)[O-])[C@@H](O)[C@H](O)[C@H]1O.[Na+].[Na+] (mixture of isomers)
Kd: Not Active

CC(=O)N[C@H]1[C@@H](OC[C@@H](O)[C@@H](O)[C@H](O)[C@@H](O)CNc2cccc(NC(=O)CCCCC3CCSS3)c2)O[C@H](COS(=O)(=O)O)[C@H](O)[C@@H]1O[C@@H]1O[C@H](C(=O)O)[C@@H](O)[C@H](O)[C@H]1O (mixture of isomers)
pKd: 7.44

CC(=O)N[C@H]1[C@@H](OC[C@@H](O)[C@@H](O)[C@H](O)[C@@H](O)CNc2cccc(NC(=O)CCCCC3CCSS3)c2)O[C@H](CO)[C@H](O)[C@@H]1O[C@@H]1O[C@H](C(=O)O)[C@@H](O)[C@H](O)[C@H]1OS(=O)(=O)O (mixture of isomers)
pKd: 7.21

CC(=O)N[C@H]1[C@@H](OC[C@@H](O)[C@@H](O)[C@H](O)[C@@H](O)CNc2cccc(NC(=O)CCCCC3CCSS3)c2)O[C@H](CO)[C@H](O)[C@@H]1O[C@@H]1O[C@H](C(=O)O)[C@@H](O)[C@H](OS(=O)(=O)O)[C@H]1O (mixture of isomers)
pKd: 7.60

CC(=O)N[C@H]1[C@@H](OC[C@@H](O)[C@@H](O)[C@H](O)[C@@H](O)CNc2cccc(NC(=O)CCCCC3CCSS3)c2)O[C@H](CO)[C@H](OS(=O)(=O)O)[C@@H]1O[C@@H]1O[C@H](C(=O)O)[C@@H](O)[C@H](O)[C@H]1OS(=O)(=O)O (mixture of isomers)
pKd: 7.39

CC(=O)N[C@H]1[C@@H](OC[C@@H](O)[C@@H](O)[C@H](O)[C@@H](O)CNc2cccc(NC(=O)CCCCC3CCSS3)c2)O[C@H](COS(=O)(=O)O)[C@H](O)[C@@H]1O[C@@H]1O[C@H](C(=O)O)[C@@H](O)[C@H](O)[C@H]1OS(=O)(=O)O (mixture of isomers)
pKd: 7.64

CC(=O)N[C@H]1[C@@H](OC[C@@H](O)[C@@H](O)[C@H](O)[C@@H](O)CNc2cccc(NC(=O)CCCCC3CCSS3)c2)O[C@H](COS(=O)(=O)O)[C@H](O)[C@@H]1O[C@@H]1O[C@H](C(=O)O)[C@@H](O)[C@H](OS(=O)(=O)O)[C@H]1O (mixture of isomers)
pKd: 6.83

CC(=O)N[C@H]1[C@@H](OC[C@@H](O)[C@@H](O)[C@H](O)[C@@H](O)CNc2cccc(NC(=O)CCCCC3CCSS3)c2)O[C@H](CO)[C@H](O)[C@@H]1O[C@@H]1O[C@H](C(=O)O)[C@@H](O)[C@H](OS(=O)(=O)O)[C@H]1OS(=O)(=O)O (mixture of isomers)
pKd: 7.02

CC(=O)N[C@H]1[C@@H](OC[C@@H](O)[C@@H](O)[C@H](O)[C@@H](O)CNc2cccc(NC(=O)CCCCC3CCSS3)c2)O[C@H](COS(=O)(=O)O)[C@H](OS(=O)(=O)O)[C@@H]1O[C@@H]1O[C@H](C(=O)O)[C@@H](O)[C@H](O)[C@H]1OS(=O)(=O)O (mixture of isomers)
pKd: 7.68

CC(=O)N[C@H]1[C@@H](OC[C@@H](O)[C@@H](O)[C@H](O)[C@@H](O)CNc2cccc(NC(=O)CCCCC3CCSS3)c2)O[C@H](COS(=O)(=O)O)[C@H](OS(=O)(=O)O)[C@@H]1O[C@@H]1O[C@H](C(=O)O)[C@@H](O)[C@H](OS(=O)(=O)O)[C@H]1O (mixture of isomers)
pKd: 7.22

CC(=O)N[C@H]1[C@@H](OC[C@@H](O)[C@@H](O)[C@H](O)[C@@H](O)CNc2cccc(NC(=O)CCCCC3CCSS3)c2)O[C@H](CO)[C@H](OS(=O)(=O)O)[C@@H]1O[C@@H]1O[C@H](C(=O)O)[C@@H](O)[C@H](OS(=O)(=O)O)[C@H]1OS(=O)(=O)O (mixture of isomers)
pKd: 7.28

CC(=O)N[C@H]1[C@@H](OC[C@@H](O)[C@@H](O)[C@H](O)[C@@H](O)CNc2cccc(NC(=O)CCCCC3CCSS3)c2)O[C@H](COS(=O)(=O)O)[C@H](O)[C@@H]1O[C@@H]1O[C@H](C(=O)O)[C@@H](O)[C@H](OS(=O)(=O)O)[C@H]1OS(=O)(=O)O (mixture of isomers)
pKd: 7.00

CC(=O)N[C@H]1[C@@H](OC[C@@H](O)[C@@H](O)[C@H](O)[C@@H](O)CNc2cccc(NC(=O)CCCCC3CCSS3)c2)O[C@H](COS(=O)(=O)O)[C@H](OS(=O)(=O)O)[C@@H]1O[C@@H]1O[C@H](C(=O)O)[C@@H](O)[C@H](OS(=O)(=O)O)[C@H]1OS(=O)(=O)O (mixture of isomers)
pKd: 8.31
